Target: T1, cereblon (CRBN)—DNA damage protein 1 (DDB1) complex (Homo sapiens, UniProt Q96SW2)
T1 construct: encoding amino acid residues 1 to 442 (Uniprot Q96SW2); hexahistidine (N); thrombin cleavage site (N); made in house; host or cells: Sf9 insect cells (baculovirus co-infection)
Assay: Cereblon HTRF binding assay
Source text: The synthesized sequence was designed to encode an N-terminal hexahistidine tag, a thrombin cleavage site, an AviTag™ and a tobacco etch virus protease (TEV) cleavage site followed by the CBRN sequence. The resulting protein sequence is listed below.
The synthesized sequence was designed to encode an N-terminal hexahistidine tag, a tobacco etch virus protease (TEV) cleavage site followed by the DDB1 sequence. […] The linker amino acid residues are underlined and shown in italics.
Baculovirus production of CBRN and DDB1: Recombinant bacmid and P2 virus of CBRN and DDB1 was generated according to the Bac-to-Bac Baculovirus Expression System manual (ThermoFisher Scientific).
Protein Purification: Protein purification was initiated by thawing cells (resuspended in Lysis buffer) at r.t. Once thawed, NaCl was added to a final concentration of 200 mM, followed by 0.01 μL/mL Benzonase™ and the lysate was incubated with slow stirring for 20 minutes. After the freeze-thaw lysis, the whole cell lysate was centrifuged at 48 000 g for 45 minutes and all following purification steps were done on ice or in cold-room. Supernatant (cell lysate) was mixed with 1 mL/50 mL lysate Ni Sepharose™ 6 Fast Flow (Cytiva) pre-equilibrated with Wash buffer (50 mM Tris-Cl pH 8, 20 mM Imidazole, 500 mM NaCl, 10% Glycerol, 1 mM TCEP) and incubated with slow stirring for 1 h. The mix was loaded in a 70 mL open gravity flow column, washed with 10 bed volumes of Wash buffer, and stepwise eluted with 300 mM imidazole in Wash buffer. […] After biotinylation, the CBRN/DDB1 complex was purified by Size Exclusion Chromatography on a HiLoad™ 26/60 Superdex™ 200 column equilibrated in SEC buffer (50 mM HEPES pH 7.5, 200 mM NaCl, 5% glycerol, 1 mM TCEP) before flash-freezing in liquid nitrogen and storage at −80° C.
The assay mixture in a total volume of 4 μL consists of 50 mM Tris-HCl at pH 7.5, 100 mM NaCl, 0.01% Pluronic F127, 1 mM TCEP, 500 μM EDTA, 0.2 nM CRBN-DDB1, 0.2 nM terbium cryptate labeled streptavidin, and 2 nM Cyanine 5-labeled lenalidomide as the probe. […] Reagents were dispensed into the 384-well assay microplate using a Certus Flex liquid dispenser. After incubation for 2 h at r.t., the assay plates were read on a PHERAstar FSX plate reader (BMG Labtech) in the HTRF mode. The raw data from PHERAstar was directly imported into Genedata Screener for analysis. […] The ratio was normalized to positive and negative controls on the same plates to calculate percent inhibition: I %=(I−NC)/(PC−NC), where I are readings from the compound treated well, NC and PC are average readings from negative control wells and positive control wells, respectively. IC50 values were obtained by fitting the I % vs. compound concentration [I] to I %=S0+(SInf−S0)/(1+((IC50/[I])^n)), where S0 is the fitted activity level at zero concentration of test compound, SInf is the fitted activity level at […] concentration of test compound, and n is the hill coefficient of the curve.
The IC50 values reported below are the calculated mean result of one or more experiments.

T1 sequence (Q96SW2 with tags, fused parts or gaps): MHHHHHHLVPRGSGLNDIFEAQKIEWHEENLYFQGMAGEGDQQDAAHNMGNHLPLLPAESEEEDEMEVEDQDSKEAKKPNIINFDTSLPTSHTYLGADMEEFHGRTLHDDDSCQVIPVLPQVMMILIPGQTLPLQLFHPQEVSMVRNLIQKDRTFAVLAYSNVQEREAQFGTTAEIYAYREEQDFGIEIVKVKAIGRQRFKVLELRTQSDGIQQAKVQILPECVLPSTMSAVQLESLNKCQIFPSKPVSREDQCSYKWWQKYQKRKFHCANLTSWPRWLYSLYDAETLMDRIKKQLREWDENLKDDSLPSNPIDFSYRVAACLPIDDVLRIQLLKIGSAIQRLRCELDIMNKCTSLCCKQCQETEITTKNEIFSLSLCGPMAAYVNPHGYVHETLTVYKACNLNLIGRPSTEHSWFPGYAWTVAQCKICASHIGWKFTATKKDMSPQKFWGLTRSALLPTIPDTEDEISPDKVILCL

Structure (SMILES) | IC50 [nM]
O=C1CCN(c2ccc3ccoc3c2)C(=O)N1 [Example 1, 1-(Benzofuran-6-yl)dihydropyrimidine-2,4 (1H,3H)-dione] | 2100
O=C1CCN(c2cccc3ncsc23)C(=O)N1 [Example 2, 1-(Benzo[d]thiazol-7-yl)dihydropyrimidine-2,4 (1H,3H)-dione] | 2000
O=C1CCN(c2ccc3ccnn3c2)C(=O)N1 [Example 3, 1-(Pyrazolo[1,5-a]pyridin-6-yl)dihydropyrimidine-2,4 (1H,3H)-dione] | 3280
O=C1CCN(c2cccc3ncoc23)C(=O)N1 [Example 4, 1-(Benzo[d]oxazol-7-yl)dihydropyrimidine-2,4 (1H,3H)-dione] | 3880
O=C1CCN(c2ccc3ncoc3c2)C(=O)N1 [Example 5, 1-(Benzo[d]oxazol-6-yl)dihydropyrimidine-2,4 (1H,3H)-dione] | 6740
Cn1ncc2cc(N3CCC(=O)NC3=O)ccc21 [Example 6, 1-(1-Methyl-1H-indazol-5-yl)dihydropyrimidine-2,4 (1H,3H)-dione] | 3930
O=C1CCN(c2ccn3ccnc3c2)C(=O)N1 [Example 7, 1-(Imidazo[1,2-a]pyridin-7-yl)dihydropyrimidine-2,4 (1H,3H)-dione] | 3000
Cn1cc2cc(N3CCC(=O)NC3=O)ccc2n1 [Example 8, 1-(2-Methyl-2H-indazol-5-yl)dihydropyrimidine-2,4 (1H,3H)-dione] | 4570
O=C1CCN(c2ccc3ncsc3c2)C(=O)N1 [Example 9, 1-(Benzo[d]thiazol-6-yl)dihydropyrimidine-2,4 (1H,3H)-dione] | 5350
CN1Cc2ccc(N3CCC(=O)NC3=O)cc2C1=O [Example 10, 1-(2-Methyl-3-oxoisoindolin-5-yl)dihydropyrimidine-2,4 (1H,3H)-dione] | 7880
Cn1ccc2cc(N3CCC(=O)NC3=O)cnc21 [Example 11, 1-(1-Methyl-1H-pyrrolo[2,3-b]pyridin-5-yl)dihydropyrimidine-2,4 (1H,3H)-dione] | 26900
Cn1c(=O)oc2cc(N3CCC(=O)NC3=O)ccc21 [Example 12, 1-(3-Methyl-2-oxo-2,3-dihydrobenzo[d]oxazol-6-yl)dihydropyrimidine-2,4 (1H,3H)-dione] | 11000
O=c1ccn(-c2ccc3cc[nH]c3c2)c(=O)[nH]1 [Example 13, 1-(1H-Indol-6-yl)pyrimidine-2,4 (1H,3H)-dione] | 765
O=c1[nH]c(=O)n(-c2ccc3cc[nH]c3c2)cc1F [Example 14, 5-Fluoro-1-(1H-indol-6-yl)pyrimidine-2,4 (1H,3H)-dione] | 516
Cc1cn(-c2ccc3cc[nH]c3c2)c(=O)[nH]c1=O [Example 15, 1-(1H-Indol-6-yl)-5-methylpyrimidine-2,4 (1H,3H)-dione] | 10600
COc1cc(N2CCC(=O)NC2=O)c2ccn(C)c2c1 [Example 16, 1-(6-Methoxy-1-methyl-1H-indol-4-yl)dihydropyrimidine-2,4 (1H,3H)-dione] | 211
O=C1CCN(c2cccc3[nH]ccc23)C(=O)N1 [Example 18, 1-(1H-Indol-4-yl)dihydropyrimidine-2,4 (1H,3H)-dione] | 347
COCc1cc(N2CCC(=O)NC2=O)c2ccn(C)c2c1 [Example 19, 1-(6-(Methoxymethyl)-1-methyl-1H-indol-4-yl)dihydropyrimidine-2,4 (1H,3H)-dione] | 430
O=C1CCN(c2ccc3c(c2)CCN3)C(=O)N1 [Example 20, 1-(Indolin-5-yl)dihydropyrimidine-2,4 (1H,3H)-dione] | 357
CN1CCc2cc(N3CCC(=O)NC3=O)ccc21 [Example 21, 1-(1-Methylindolin-5-yl)dihydropyrimidine-2,4 (1H,3H)-dione] | 784
O=C1CCN(c2ccc3c(c2)NCC3)C(=O)N1 [Example 22, 1-(Indolin-6-yl)dihydropyrimidine-2,4 (1H,3H)-dione] | 487

Structure (SMILES) | IC50 [nM]
CN1CCc2ccc(N3CCC(=O)NC3=O)cc21 [Example 23, 1-(1-Methylindolin-6-yl)dihydropyrimidine-2,4 (1H,3H)-dione] | 1060
O=C1CCN(c2ccc3c(c2)CNC3)C(=O)N1 [Example 24, 1-(Isoindolin-5-yl)dihydropyrimidine-2,4 (1H,3H)-dione] | 8980
CN1Cc2ccc(N3CCC(=O)NC3=O)cc2C1 [Example 25, 1-(2-Methylisoindolin-5-yl)dihydropyrimidine-2,4 (1H,3H)-dione] | 2960
O=C1CCN(c2ccc3c(c2)CCCN3)C(=O)N1 [Example 26, 1-(1,2,3,4-Tetrahydroquinolin-6-yl)dihydropyrimidine-2,4 (1H,3H)-dione] | 1490
CN1CCCc2cc(N3CCC(=O)NC3=O)ccc21 [Example 27, 1-(1-Methyl-1,2,3,4-tetrahydroquinolin-6-yl)dihydropyrimidine-2,4 (1H,3H)-dione] | 1040
O=C1CCN(c2ccc3c(c2)CNCC3)C(=O)N1 [Example 28, 1-(1,2,3,4-Tetrahydroisoquinolin-7-yl)dihydropyrimidine-2,4 (1H,3H)-dione] | 17000
CN1CCc2ccc(N3CCC(=O)NC3=O)cc2C1 [Example 29, 1-(2-Methyl-1,2,3,4-tetrahydroisoquinolin-7-yl)dihydropyrimidine-2,4 (1H,3H)-dione] | 8010
O=C1CCN(c2ccc3c(c2)CCNC3)C(=O)N1 [Example 30, 1-(1,2,3,4-Tetrahydroisoquinolin-6-yl)dihydropyrimidine-2,4 (1H,3H)-dione] | 8680
CN1CCc2cc(N3CCC(=O)NC3=O)ccc2C1 [Example 31, 1-(2-Methyl-1,2,3,4-tetrahydroisoquinolin-6-yl)dihydropyrimidine-2,4 (1H,3H)-dione] | 4100
O=C1CCN(c2ccc3c(c2)NCCC3)C(=O)N1 [Example 32, 1-(1,2,3,4-Tetrahydroquinolin-7-yl)dihydropyrimidine-2,4 (1H,3H)-dione] | 1230
O=C1CCN(c2cccc3[nH]ncc23)C(=O)N1 [Example 34, 1-(1H-Indazol-4-yl)dihydropyrimidine-2,4 (1H,3H)-dione] | 627
O=C1CCN(c2ccc3[nH]ncc3c2)C(=O)N1 [Example 35, 1-(1H-Indazol-5-yl)dihydropyrimidine-2,4 (1H,3H)-dione] | 2970
O=C1CCN(c2cnc3cnoc3c2)C(=O)N1 [Example 36, 1-(Isoxazolo[4,5-b]pyridin-6-yl)dihydropyrimidine-2,4 (1H,3H)-dione] | 115
O=C1CCN(c2cnc3ccoc3c2)C(=O)N1 [Example 37, 1-(Furo[3,2-b]pyridin-6-yl)dihydropyrimidine-2,4 (1H,3H)-dione] | 3100
O=C1CCN(c2ccc3nn[nH]c3c2)C(=O)N1 [Example 38, 1-(1H-Benzo[d][1,2,3]triazol-6-yl)dihydropyrimidine-2,4 (1H,3H)-dione] | 566
O=C1CCN(c2ccc3nc[nH]c3c2)C(=O)N1 [Example 41, 1-(1H-Benzo[d]imidazol-6-yl)dihydropyrimidine-2,4 (1H,311)-dione] | 1170
O=C1CCN(c2ccc3cn[nH]c3c2)C(=O)N1 [Example 42, 1-(1H-Indazol-6-yl)dihydropyrimidine-2,4 (1H,3H)-dione] | 2110
O=C1CCN(c2cccc3c2CNC3=O)C(=O)N1 [Example 43, 1-(1-Oxoisoindolin-4-yl)dihydropyrimidine-2,4 (1H,3H)-dione] | 3630
O=C1CCN(c2ccc3c(c2)C(=O)NC3)C(=O)N1 [Example 44, 1-(3-Oxoisoindolin-5-yl)dihydropyrimidine-2,4 (1H,3H)-dione] | 8470
O=C1NC(=O)N(c2ccc3cc[nH]c3c2)CC1F (stereo not drawn) [Example 45, 5-Fluoro-1-(1H-indol-6-yl)dihydropyrimidine-2,4 (1H,3H)-dione] | 967
O=C1CCN(c2ccc3[nH]c(=O)oc3c2)C(=O)N1 [Example 46, 1-(2-Oxo-2,3-dihydrobenzo[d]oxazol-6-yl)dihydropyrimidine-2,4 (1H,3H)-dione] | 3750
